{"source": "patent US20110060012A1", "about": "“4-[3-(ARYLOXY)BENZYLIDENE]-3-METHYL PIPERIDINE 5-MEMBERED ARYL CARBOXAMIDE COMPOUNDS USEFUL AS FAAH INHIBITORS” (Pfizer Inc., priority 2008, published 2011)"}
{"target": "T1, Human FAAH (Homo sapiens, UniProt O00519)", "T1 construct": "made in house", "T1 sequence (O00519 1-579)": "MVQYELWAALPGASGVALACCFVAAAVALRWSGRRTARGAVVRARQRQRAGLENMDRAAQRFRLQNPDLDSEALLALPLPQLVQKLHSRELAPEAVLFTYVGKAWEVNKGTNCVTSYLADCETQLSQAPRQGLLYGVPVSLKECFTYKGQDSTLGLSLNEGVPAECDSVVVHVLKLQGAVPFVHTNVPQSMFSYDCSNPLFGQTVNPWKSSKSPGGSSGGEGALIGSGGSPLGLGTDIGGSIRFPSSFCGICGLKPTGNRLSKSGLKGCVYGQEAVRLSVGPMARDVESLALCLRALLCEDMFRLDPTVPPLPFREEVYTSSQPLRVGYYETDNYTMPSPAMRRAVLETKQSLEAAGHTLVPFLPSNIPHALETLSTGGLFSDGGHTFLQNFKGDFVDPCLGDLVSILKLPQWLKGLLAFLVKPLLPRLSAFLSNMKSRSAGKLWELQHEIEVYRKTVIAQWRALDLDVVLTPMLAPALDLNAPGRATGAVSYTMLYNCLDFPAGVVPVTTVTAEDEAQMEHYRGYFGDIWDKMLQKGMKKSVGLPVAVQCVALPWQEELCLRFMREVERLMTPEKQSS", "experiment": "FAAH enzyme assay (glutamate dehydrogenase-coupled, oleamide substrate)", "format": "biochemical", "conditions": "human FAAH 1-4 nM, pH 7.4, 30° C., absorbance at 340 nm over 90 min, read-out: hFAAH Kinact/Ki", "procedure": "A FAAH enzyme assay may be carried out as described in W02006/085196 in 384-well clear polystyrene plates in a total volume of 50 μl per well. All percents are by volume. To each well was placed the reaction mixture (40 μl) containing 1-4 nM FAAH, 50 mM NaPi, pH 7.4, 3 mM α-ketoglutarate, 0.15 mM NADH, 7.5 U/ml glutamate dehydrogenase, 2 mM ADP, 1 mM EDTA, and 0.1% Triton X-100 (The concentration shown for each component is the final concentration in the assay). To this mixture was added 5 μl of a compound of Examples 1 to 20 at various concentrations prepared in 50% DMSO (or 5 μl 50% DMSO for controls). This was immediately followed by the addition of 5 μl oleamide (500 μM) dissolved in 75% EtOH/25% DMSO and the reaction mixture is mixed for 1.5 min. The final concentrations of DMSO and EtOH in the assay were each 7.5%. The reactions was then incubated at 30° C. and the absorbance at 340 nm was collected over a period of 90 min with readings taken in 30-second intervals using SpectraMax Plus^384 Microplate Spectrophotometer (Molecular Devices, Sunnyvale, Calif.). Human FAAH used in the assay was prepared as described in the patent application WO 2006/067613. The purity of the enzyme used was greater than 98% based on an analysis by SDS-polyacrylamide gel electrophoresis followed by Coomassie Blue staining.\nInitial velocity data (V) is obtained from the slopes of the initial progressive curves. They are plotted as a function of substrate concentration and fit to the Michaelis-Menten equation (1) using Prism (GraphPad Software, Inc., San Diego, Calif.) software to obtain Km and Vmax values.\nTo obtain potencies of irreversible inhibitors, progressive curves consistent with first order inhibition kinetics (two-step irreversible inhibition mechanism) are fit to equation (2) by nonlinear least squares regressions to determine kobs values at each inhibitor concentration, where [P]t is the absorbance at time t, V0 is a constant related to the steady state rate of the uninhibited reaction, and kobs is the first order rate constant for enzyme inactivation. […]", "units": {"kinact/KI": "M⁻¹ s⁻¹"}}
{"smiles": "Cc1noc(NC(=O)N2CC/C(=C\\c3cccc(Oc4ccc(C(F)(F)F)cn4)c3)C(C)C2)c1C", "note": "(single isomer, unassigned) [Example 1, (4E)-N-(3,4-dimethylisoxazol-5-yl)-3-methyl-4-(3-{[5-(trifluoromethyl)pyridin-2-yl]oxy}benzylidene)piperidine-1-carboxamide]", "kinact/KI": 624}
{"smiles": "Cc1oncc1NC(=O)N1CC/C(=C\\c2cccc(Oc3ccc(C(F)(F)F)cn3)c2)C(C)C1", "note": "(single isomer, unassigned) [Example 2, (4E)-3-methyl-N-(5-methylisoxazol-4-yl)-4-(3-{[5-(trifluoromethyl)pyridin-2-yl]oxy}benzylidene)piperidine-1-carboxamide]", "kinact/KI": 2850}
{"smiles": "CC1CN(C(=O)Nc2cnoc2)CC/C1=C\\c1cccc(Oc2ccc(C(F)(F)F)cn2)c1", "note": "(single isomer, unassigned) [Example 3, (4E)-N-isoxazol-4-yl-3-methyl-4-(3-{[5-(trifluoromethyl)pyridin-2-yl]oxy}benzylidene)piperidine-1-carboxamide]", "kinact/KI": 4350}
